Molecular target: Phospholipase D2 (Homo sapiens) + Phospholipase D2 (Homo sapiens) (UniProt O14939+O14939)
Experiment: purified PLD2 enzyme inhibitors, dose response, biochemical, assay 3B, library 32 (AID 624000)
Conditions: purified PLD2 enzyme activity

Phospholipase D2 (Homo sapiens) + Phospholipase D2 (Homo sapiens), sequence (O14939 whole entry, looked up): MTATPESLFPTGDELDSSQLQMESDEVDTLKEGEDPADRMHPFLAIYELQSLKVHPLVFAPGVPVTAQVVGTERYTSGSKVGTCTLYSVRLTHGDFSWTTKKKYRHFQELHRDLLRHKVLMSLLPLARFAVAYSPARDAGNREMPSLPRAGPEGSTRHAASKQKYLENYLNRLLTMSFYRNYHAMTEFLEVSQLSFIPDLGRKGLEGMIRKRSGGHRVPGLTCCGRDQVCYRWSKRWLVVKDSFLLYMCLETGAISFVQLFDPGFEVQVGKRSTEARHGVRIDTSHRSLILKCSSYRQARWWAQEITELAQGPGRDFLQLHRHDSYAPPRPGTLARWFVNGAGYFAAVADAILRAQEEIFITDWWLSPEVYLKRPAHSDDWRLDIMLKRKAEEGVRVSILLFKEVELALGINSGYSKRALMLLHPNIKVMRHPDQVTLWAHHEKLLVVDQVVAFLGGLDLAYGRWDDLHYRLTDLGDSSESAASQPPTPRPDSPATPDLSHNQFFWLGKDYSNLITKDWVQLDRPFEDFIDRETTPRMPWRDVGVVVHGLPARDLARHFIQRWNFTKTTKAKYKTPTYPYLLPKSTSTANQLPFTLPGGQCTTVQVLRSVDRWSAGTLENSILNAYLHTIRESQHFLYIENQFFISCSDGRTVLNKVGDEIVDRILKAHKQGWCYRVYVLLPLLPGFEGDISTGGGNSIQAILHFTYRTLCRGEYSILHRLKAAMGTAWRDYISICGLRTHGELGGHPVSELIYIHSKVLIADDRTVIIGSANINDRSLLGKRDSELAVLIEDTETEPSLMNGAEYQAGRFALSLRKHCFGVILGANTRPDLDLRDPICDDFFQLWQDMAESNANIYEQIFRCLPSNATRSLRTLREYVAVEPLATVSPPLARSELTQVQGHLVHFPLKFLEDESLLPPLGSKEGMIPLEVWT
Phospholipase D2 (Homo sapiens) + Phospholipase D2 (Homo sapiens), sequence (O14939 whole entry, looked up): as above

Row | Structure (SMILES) | IC50
1 | COc1cc(C(=O)NCCN2CCC3(CC2)C(=O)NCN3c2cccc(F)c2)cc(OC)c1OC | 1430 nM
2 | C[C@@H](CN1CCC2(CC1)C(=O)NCN2c1cccc(F)c1)NC(=O)c1ccc(Br)cc1 | 84 nM
